Test results reported in patent publication US12458605B2, “Lipid nanoparticle” (National University Corporation Hokkaido University, priority 2020, dated 2025).

Columns and labels:
[1] = tested on: F7; experiment: In vivo F7 knockdown, plasma F7 enzyme activity (BIOPHEN FVII), Balb/c mice; settings: i.v. 0.025 mg siRNA/kg, plasma at 24 hours, untreated mice as 100%
In short: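 Female Balb/c mice, 5 weeks old, received F7 siRNA lipid nanoparticles i.v. at 0.025 mg siRNA/kg; plasma F7 activity measured chromogenically (BIOPHEN FVII) 24 h later. Values are % of untreated mice, also expressed as a ratio to MC3-containing nanoparticles set at 1.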

[2] = pDNA encapsulation rate by Picogreen reagent; assay type: physicochemical; settings: pDNA (eGFP)-loaded LNP
Procedure: The encapsulation rate of pDNA of the lipid nanoparticles was measured using Picogreen (registered trademark) reagent (Quant-iT™ dsDNA Assay Kit, broad range, manufactured by Thermofisher Scientific). In encapsulation rate measurement of pDNA, the nucleic acid concentration in solution for measuring nanoparticle surface nucleic acid concentration was set at 1.6 μg/mL, the nucleic acid concentration in solution for measuring total nucleic acid concentration […], and the nucleic acid concentration used for calibration curve 0-0.5 μg/mL, and the same method as the method for measuring encapsulation rate of siRNA and mRNA was carried out except that Picogreen (registered trademark) reagent (Quant-iT™ dsDNA Assay Kit, broad range, manufactured by Thermofisher Scientific) was used as measurement reagent. Encapsulation rate %=(nucleic acid concentration in solution for measuring total nucleic acid concentration (μg/mL)−nucleic acid concentration in solution for measuring nanoparticle surface nucleic acid concentration (μg/mL))/(nucleic acid concentration in solution for measuring total nucleic acid concentration (μg/mL))×100. <Results>

[3] = tested on: spleen; experiment: In vivo Fluc activity of FlucmRNA-loaded LNP by in vivo imaging, spleen; settings: Balb/c mice, 6 hours; for Fluc activity in the spleen, compared with CL4F6: 0.1 mg mRNA/kg, versus LNP comprising CL4F6 (Tables 5 and 6); for Fluc Activity in spleen: FlucmRNA-loaded LNP i.v. 0.1 mg mRNA/kg
In short: (§1)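 Female Balb/c mice, 7 weeks old, received LNP i.v. at 0.1 mg mRNA/kg. At 6 h, luciferin was given via tail vein at 1.5 mg per mouse, and liver and spleen luminescence was imaged as Avg Radiance [p/s/cm2/sr] near 560 nm.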

[4] = Storage stability of FlucmRNA-loaded LNP at −80, 5, 25 and 40° C.; assay type: physicochemical; settings: for period for which quality remained good, −80° C.: maximum storage period 1 week; for period for which quality remained good, 5° C. / period for which quality remained good, 25° C. / period for which quality remained good, 40° C. (weeks): maximum storage period 5 weeks
In short: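 FlucmRNA-loaded LNPs held at −80, 5, 25 or 40° C; at each time point size, PDI and encapsulation measured. Quality deemed maintained while size stays within ±20 nm of preparation day, PDI ≤0.2 and encapsulation ≥80%; value is the period meeting all three.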

[5] = Average particle size (ζ-Average) and PDI by dynamic light scattering (Zetasizer Nano ZSP); assay type: physicochemical; settings: for Particle size (nm), immediately after the preparation: pDNA (eGFP)-loaded LNP
In short: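 Lipid nanoparticles dispersed in PBS(−) were sized by dynamic light scattering, giving the ζ-Average diameter and polydispersity index (PDI).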

[6] = Stability of pDNA-loaded LNP standing at 40° C.; assay type: physicochemical; settings: for Quality 40° C. 1 M / Quality 40° C. 1 W: pDNA-loaded LNP; for Particle size (nm), 40° C. 1 M / encapsulation rate (%), 40° C. 1 M: pDNA-loaded LNP after standing at 40° C. 1 M; for Particle size (nm), 40° C. 1 W / encapsulation rate (%), 40° C. 1 W: pDNA-loaded LNP after standing at 40° C. 1 W
Procedure: Prepared lipid nanoparticles were allowed to stand at 40° C., and after keeping for each period, they were evaluated whether quality was well remained according to the following criteria: • Good (O): particle size is within +/−20 nm of the particle size immediately after preparation, and PDI is 0.2 or less, and encapsulation rate is 80% or more; • No good (X): particle size is greater than +/−20 nm of the particle size immediately after preparation, or encapsulation rate is less than 80%.
The lipid nanoparticles which remain in good quality with standing at 40° C. for one week or more can be evaluated as having excellent stability.

[7] = siRNA/mRNA encapsulation rate by Ribogreen reagent (section IV); assay type: physicochemical; settings: for % siRNA encapsulation: F7siRNA-loaded LNP, 50:10:38.5:1.5, N/P ratio 6; for % mRNA encapsulation: FlucmRNA-loaded LNP, 50:10:38.5:1.5
In short: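 LNPs diluted in TE buffer to 8 μg/mL nucleic acid for surface RNA, or to 1.2 μg/mL with 1% Triton X-100 for total RNA. RiboGreen fluorescence (ex 485/em 528 nm) quantified against a Triton-containing standard curve (0-2.5 μg/mL). Encapsulation % = (total − surface)/total × 100.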

[8] = tested on: liver; experiment: In vivo Fluc activity of FlucmRNA-loaded LNP by in vivo imaging, liver; settings: Balb/c mice, FlucmRNA-loaded LNP i.v. 0.1 mg mRNA/kg, 6 hours
In short: as §1

[9] = F7siRNA-loaded LNP, 50:10:38.5:1.5, N/P ratio 6
[10] = FlucmRNA-loaded LNP, 50:10:38.5:1.5
[11] = FlucmRNA-loaded LNP, lipid:DSPC:cholesterol:DMG-PEG2K 50:10:38.5:1.5

encapsulation rate (%), immediately after the preparation [2] | period for which quality remained good, −80° C. [4] | period for which quality remained good, 5° C. [4] | period for which quality remained good, 25° C. [4] | period for which quality remained good, 40° C. (weeks) [4] | PDI [5, 9] | ζ-Average (nm) [5, 9] | PDI [5, 10] | ζ-Average (nm) [5, 11] | Particle size (nm), immediately after the preparation ([5]; 50:10:38.5:1.5) | Quality 40° C. 1 M [6] | Quality 40° C. 1 W [6] | Particle size (nm), 40° C. 1 M [6] | encapsulation rate (%), 40° C. 1 M [6] | Particle size (nm), 40° C. 1 W [6] | encapsulation rate (%), 40° C. 1 W [6] | % siRNA encapsulation [7] | SMILES | F7 enzyme activity (%) [1] | Fluc activity in the spleen, compared with CL4F6 [3] | Fluc Activity in spleen [3] | other results
98.0% | 1 week | 5 weeks | 5 weeks | 1 week weeks | 0.006 | 110.00 nm | 0.020 | 101.60 nm | 104.7 nm | ∘ | ∘ | 116.4 nm | 98.1% | 109.1 nm | 97.8% | 100.0% | CCCCCCC(CCCC)C(=O)OCCCCCCC(O)(CCCCCCOC(=O)C(CCCC)CCCCCC)CCCCN(CCC)CCC (centres unmarked) [CL4F 8-4] | 5.6% | higher Fluc activity | 1.41E+07 Avg Radiance [p/s/cm2/sr] | % mRNA encapsulation [7]: 99.7%; Fluc Activity in liver [8]: 6.09E+07 Avg Radiance [p/s/cm2/sr]
98.2% | 1 week | 5 weeks | 5 weeks | 5 weeks | 0.006 | 98.70 nm | 0.021 | 84.62 nm | 101.6 nm | ∘ | ∘ | 104.2 nm | 98.5% | 101.0 nm | 98.3% | 100.1% | CCCCCCCCC(CCCCC)C(=O)OCCCCCCC(O)(CCCCCCOC(=O)C(CCCCC)CCCCCCCC)CCCCN(CCC)CCC (centres unmarked) [CL4F 10-5] | 3% | higher Fluc activity | 4.64E+06 Avg Radiance [p/s/cm2/sr] | % mRNA encapsulation [7]: 99.7%; Fluc Activity in liver [8]: 1.06E+08 Avg Radiance [p/s/cm2/sr]
